Earlier results in patent US4241056A, “Penicillins and salts thereof” (Boehringer Ingelheim GmbH, priority 1978, dated 1980).
Counter-ions that a name gives are not always drawn.

Assays:
Klebsiella = conditions: cited from earlier work
various kinds of E. coli = conditions: cited from earlier work
Pseudomonas = conditions: in vivo as well as in vitro; cited from earlier work

Structure (SMILES) | activity against Klebsiella (Klebsiella) | activity against various kinds of E. coli (various kinds of E. coli) | antipseudomonal activity (Pseudomonas)
CC1(C)S[C@@H]2[C@H](NC(=O)[C@H](NC(=O)N3CCNC3=O)c3ccccc3)C(=O)N2[C@H]1C(=O)O [Azlocillin, 6-{D-α-[(2-oxo-imidazolidine-1-yl)carbonylamino]-4-phenyl-acetamino}-pencillanic acid sodium salt] | only a moderate activity | only a moderate activity | 
CC1(C)S[C@@H]2[C@H](NC(=O)[C@H](C(=O)O)c3ccsc3)C(=O)N2[C@H]1C(=O)O [Ticarcillin] |  |  | only a poor activity
